Experimental findings from the supplement of paper PMC3493320 are described below.

This test has as its system NCI-H295R. Briefly: IC50 (antiproliferative, ATP content). Conditions: 48 h. The gist of the method: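 Compounds were pin-transferred at 8 final concentrations between 0.6 nM and 46 µM onto adrenocortical carcinoma cells (1500 per well, 1536-well plates) that had been cultured overnight in serum-free DMEM with ITS. Plates then stood 48 h at 37 °C, 5% CO2, and ATP was detected by CellTiter-Glo luminescence. IC50 was derived from logistic fits of normalised signal, and compounds giving no concentration response were noted as above the top dose.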
As to `NC[C@H]1O[C@H](O[C@H]2[C@H](O[C@@H]3O[C@H](CO)[C@@H](O)[C@H]3O)C(O)[C@H](N)C[C@@H]2N)[C@H](N)[C@@H](O)[C@@H]1O.O=S(=O)(O)O` (some centres undefined), the IC50 was greater than 46 µM.
For `O=C(C=Cc1ccccc1)OCc1ccccc1` the value was greater than 46 µM; for `O=C(CC)O[C@@]1([C@@]2=CC=CC=C2)[C@H](C)CN(C)CC1`, greater than 46 µM.
The compound `CN1Cc2c(N)cccc2C(c2ccccc2)C1.O=C(O)/C=C\C(=O)O` (centres undefined) returned an IC50 greater than 46 µM.
For `COc1ccc(Cl)cc1C(=O)NCCc1ccc(S(=O)(=O)NC(=O)NC2CCCCC2)cc1` the value was greater than 46 µM.
The figure for `CN1CCN(C2=Nc3cc(F)ccc3Cc3ccccc32)CC1` is greater than 46 µM; for `CC(CN(C)C)CN1c2ccccc2CCc2ccccc21.O=C(O)/C=C\C(=O)O` (centres undefined) it is greater than 46 µM; for `O[C@]([C@H]3CN(CCC3)CC/C=C(C2=C(C)C=CS2)/C1=C(C)C=CS1)=O.Cl` it is greater than 46 µM.
The figure for `NCCc1cnc[nH]1` is greater than 46 µM.
In the case of `COC(c1ccccc1)(c1ccccc1)[C@H](Oc1nc(C)cc(C)n1)C(=O)O`, the IC50 is greater than 46 µM.
The figure for `O=[N+]([O-])c1ccccc1` is greater than 46 µM; for `Nc1nc(N)nc(-c2cc(Cl)ccc2Cl)n1.O=C(O)/C=C\C(=O)O` it is greater than 46 µM.
The figure for `NC(=O)OCC(O)COc1ccc(Cl)cc1` (centres undefined) is greater than 46 µM; for `CNCCCC12CCC(c3ccccc31)c1ccccc12` it is greater than 46 µM.
The compound `O=C2N1[C@]([C@@]([H])2NC(C(C(OC)=CC=C3)=C3OC)=O)([H])SC(C)(C)[C@@H]1[C@@]([O-])=O.[Na+].O` displayed an IC50 greater than 46 µM.
Compound `CC(O)(P(=O)([O-])O)P(=O)([O-])O.[Na+].[Na+]` had an IC50 greater than 46 µM.
The figure for `CN1CCCC(CN2c3ccccc3Sc3ccccc32)C1` (centres undefined) is greater than 46 µM; for `Cl.Clc1ccc(Cn2c(CN3CCCC3)nc3ccccc32)cc1` it is greater than 46 µM.
The figure for `CCC(=O)[C@@]1(C)[C@H](C)C[C@H]2[C@@H]3CCC4=CC(=O)C=C[C@]4(C)[C@H]3[C@@H](O)C[C@@]21C` is greater than 46 µM; for `Cc1ccc(N(CC2=NCCN2)c2cccc(O)c2)cc1` it is greater than 46 µM.
For `Cl.Cl.O=C(O)COCCN1CCN(C(c2ccccc2)c2ccc(Cl)cc2)CC1` (centres undefined) the value was greater than 46 µM; for `CC(C)[C@H](NC(=O)[C@H](CC(=O)O)NC(=O)[C@H](CCCCN)NC(=O)[C@@H](N)CCCNC(=N)N)C(=O)N[C@@H](Cc1ccc(O)cc1)C(=O)O`, greater than 46 µM; for `c1ccc2c(c1)sc1ccccc12`, greater than 46 µM.
`CCOC(=O)COc1ccc2c(C)c(CCN(CC)CC)c(=O)oc2c1Cl.Cl` had an IC50 greater than 46 µM.
For `COc1ccc(O)cc1` the value was greater than 46 µM.
In the case of `CCC1(c2ccc(N)cc2)CCC(=O)NC1=O` (centres undefined), the IC50 is greater than 46 µM.
The figure for `C=C(C)[C@@H]1[C@H]2OC(=O)[C@@H]1[C@]1(O)C[C@H]3O[C@]34C(=O)O[C@H]2[C@]14C.CC(C)(O)[C@@H]1[C@H]2OC(=O)[C@@H]1[C@]1(O)C[C@H]3O[C@]34C(=O)O[C@H]2[C@]14C` is greater than 46 µM; for `CCc1cccc(CC)c1NC(=O)CN(CC(=O)O)CC(=O)O` it is greater than 46 µM; for `c1cnc(N2CCN(Cc3ccc4c(c3)OCO4)CC2)nc1` it is greater than 46 µM.
In the case of `O=C([O-])c1cc(O)c2c3nc4ccccc4oc-3cc(=O)c2n1.[Na+]`, the IC50 was greater than 46 µM.
For `O=C(O)COc1ccc(C(=O)c2cccs2)c(Cl)c1Cl` the value was greater than 46 µM.
The figure for `Cl.OC(CCN1CCCCC1)(c1ccccc1)C1CC2C=CC1C2` (centres undefined) is greater than 46 µM.
Regarding `Cc1ccc2c(c1)C1CN(C)CCC1N2` (centres undefined), the IC50 was greater than 46 µM.
Compound `CN(C)CCN1C(=O)c2ccccc2N(C)c2ccccc21.Cl` showed an IC50 greater than 46 µM.
The figure for `CN1CCC[C@@H]1CCO[C@](C)(c1ccccc1)c1ccc(Cl)cc1.O=C(O)/C=C/C(=O)O` is greater than 46 µM; for `CC(=O)OCC(=O)[C@@]53/N=C(/C)O[C@@H]5C[C@H]2[C@@H]4CC\C1=C\C(=O)\C=C/[C@]1(C)[C@H]4[C@@H](O)C[C@@]23C` it is greater than 46 µM.
The figure for `CC1CCCC(C)N1NC(=O)c1ccc(Cl)c(S(N)(=O)=O)c1` (centres undefined) is greater than 46 µM; for `CN1CCN(C(c2ccccc2)c2ccc(Cl)cc2)CC1.Cl` (centres undefined) it is greater than 46 µM; for `CCOC(=O)C1(c2ccccc2)CCN(CCC(C#N)(c2ccccc2)c2ccccc2)CC1.Cl` it is greater than 46 µM.
For `O=C(Nc1ccc(Cl)c(Cl)c1)C1CC1` the value was greater than 46 µM; for `C[C@](N)(Cc1ccc(O)c(O)c1)C(=O)O.C[C@](N)(Cc1ccc(O)c(O)c1)C(=O)O.O.O.O`, greater than 46 µM.
Regarding `Cc1[nH]c(=O)c(C#N)cc1-c1ccncc1`, the IC50 was greater than 46 µM.
For `C[C@@H]1C[C@H]2[C@@H]3C[C@H](F)C4=CC(=O)C=C[C@]4(C)[C@@]3(F)[C@@H](O)C[C@]2(C)[C@@]1(O)C(=O)CO` the value was greater than 46 µM; for `COc1ccc(C(=O)c2c(C)n(CCN3CCOCC3)c3ccccc23)cc1`, greater than 46 µM.
For `OC[C@@H](O)[C@@H](O)[C@@H](CO)O` the value was greater than 46 µM; for `CC1CCC(NC(=O)N(CCCl)N=O)CC1` (centres undefined), greater than 46 µM; for `Nc1cccc2c1CN(C1CCC(=O)NC1=O)C2=O` (centres undefined), greater than 46 µM.
The figure for `CC(C)=CCC/C(C)=C/CC/C(C)=C/CC/C(C)=C/CC1=C(C)C(=O)c2ccccc2C1=O` is greater than 46 µM; for `CCC(=O)O[C@@H]1CC(=O)O[C@H](C)CC=CC=C[C@H](O)[C@H](C)C[C@H](CC=O)[C@H](O[C@@H]2O[C@H](C)[C@@H](O[C@H]3C[C@@](C)(O)[C@@H](OC(=O)CC)[C@H](C)O3)[C@H](N(C)C)[C@H]2O)[C@H]1OC` it is greater than 46 µM; for `O=C5O[C@]4(CC5)[C@@]3(C)C[C@@H]6[C@]([C@@]([C@@]([H])3CC4)([H])[C@H]([C@@](OC)=O)C2)(O6)[C@@](C2=C1)(C)CCC1=O` it is greater than 46 µM.
Compound `Cc1cccc(Nc2ncccc2C(=O)O)c1C` returned an IC50 greater than 46 µM.
For `Cc1cc(=O)[nH]c(=S)[nH]1` the value was greater than 46 µM; for `Nc1nc(N)nc(NC2CC2)n1`, greater than 46 µM; for `CC(C)=CCC1C(=O)N(c2ccccc2)N(c2ccccc2)C1=O`, greater than 46 µM.
For `CC1(C)O[C@@H]2[C@@H](CO[C@@]3(COS(N)(=O)=O)OC(C)(C)O[C@@H]23)O1` the value was greater than 46 µM; for `[O-][n+]1cccc(CO)c1`, greater than 46 µM.
With `CCCCCCCC/C=C\CCCCCCCC(=O)O`, the half-inhibitory concentration (IC50) was greater than 46 µM.
For `CCC(=O)c1ccc2c(c1)N(CCCN(C)C)c1ccccc1S2.Cl` the value was greater than 46 µM; for `CC(C)=CCC/C(C)=C/CC/C(C)=C/CC/C=C(\C)CC/C=C(\C)CCC=C(C)C`, greater than 46 µM.
Regarding `COc1ccc(C(=O)N2CCCC2=O)cc1`, the IC50 was greater than 46 µM.
On to `COc1ccc2c(c1OC)CN1CCc3cc4c(cc3C1C2)OCO4` (centres undefined), for which the IC50 is greater than 46 µM.
The figure for `N=C(Nc1ccccc1)Nc1ccccc1` is greater than 46 µM; for `Cl.Oc1cn2c(n1)Nc1ccc(Cl)c(Cl)c1C2` it is greater than 46 µM; for `O=C1NN=C(C2=CC=C(C=C2)N/N=C(C#N)/C#N)[C@@H](C1)C` it is greater than 46 µM.
`COc1ccc(CC2c3cc(OC)c(OC)cc3CC[N+]2(C)CCC(=O)OCCCCCOC(=O)CC[N+]2(C)CCc3cc(OC)c(OC)cc3C2Cc2ccc(OC)c(OC)c2)cc1OC.O=S(=O)([O-])c1ccccc1.O=S(=O)([O-])c1ccccc1` (centres undefined) had an IC50 greater than 46 µM.
Compound `O=C1NCN(c2ccccc2)C12CCN(CCCOc1ccc(F)cc1)CC2` yielded an IC50 greater than 46 µM.
For `CO/N=C(\C(=O)N[C@@H]1C(=O)N2C(C(=O)O)=C(CSc3cnns3)CS[C@H]12)c1csc(N)n1.Cl` the value was greater than 46 µM; for `C=CCc1cc(OC)c(O)c(C(=O)NCCO)c1`, greater than 46 µM.
The figure for `O=C1OC2(c3ccc([O-])cc3Oc3cc([O-])ccc32)c2ccccc21.[Na+].[Na+]` is greater than 46 µM.
The figure for `CCCC(=O)Nc1ncnc2c1ncn2[C@@H]1O[C@@H]2COP(=O)(O)O[C@H]2[C@H]1OC(=O)CCC` is greater than 46 µM; for `CC(C)(CO)C(O)C(=O)NCCC(=O)NCCSSCCNC(=O)CCNC(=O)C(O)C(C)(C)CO` (centres undefined) it is greater than 46 µM.
Turning to `CC1(C)C(C=C(Cl)Cl)C1C(=O)OCc1cccc(Oc2ccccc2)c1` (centres undefined), the IC50 was greater than 46 µM.
The figure for `CC(=O)Nc1ccc(O)cc1` is greater than 46 µM; for `CCn1nc(C(=O)O)c(=O)c2cc3c(cc21)OCO3` it is greater than 46 µM.
The figure for `Cc1cc(-n2nc3ccc(Cl)cc3n2)c(O)c(C(C)(C)C)c1` is greater than 46 µM; for `CC(C)[C@@H](C)/C=C/[C@@H](C)[C@H]1CC[C@H]2/C(=C/C=C3\C[C@@H](O)CC[C@@H]3C)CCC[C@]12C` it is greater than 46 µM.
The figure for `O=C3/C=C4/CC[C@@H]2[C@H](CC[C@]1(C)C(=O)CC[C@H]12)[C@@]4(C)CC3` is greater than 46 µM; for `Cc1cccc(C)c1NC(=O)c1ccccc1C(=O)O` it is greater than 46 µM.
Compound `Nc1nc(=O)n([C@@H]2CS[C@H](CO)O2)cc1F` displayed an IC50 greater than 46 µM.
For `CCC(=O)O[C@H]1CC[C@H]2[C@@H]3CCC4=CC(=O)CC[C@]4(C)[C@H]3CC[C@]12C` the value was greater than 46 µM.
For `O=C1C(O)=C(O)C(=O)C(O)=C1O` the value was greater than 46 µM; for `Cl.NCCS`, greater than 46 µM; for `O=C(O)Cc1csc(-c2ccc(Cl)cc2)n1`, greater than 46 µM.
The figure for `CCc1cn([C@H]2C[C@H](O)[C@@H](CO)O2)c(=O)[nH]c1=O` is greater than 46 µM.
